Measurements taken from patent US5928915A, “CHO cell sialidase by recombinant DNA technology” (Genentech, Inc., priority 1997, dated 1999).

Experiments:
[1] = target: T1, CHO cell sialidase (Cricetulus griseus, UniProt Q64393); assay: Inhibition of CHO cell sialidase (competitive inhibitor study); type: biochemical, Chinese hamster
T1 construct: The sialidase described was purified from the cell culture fluid of a single production cell line (CHO 14.16); endogenous in cells; host or cells: CHO 14.16 cells (purified from the cell culture fluid)
T1 sequence (Q64393 whole entry): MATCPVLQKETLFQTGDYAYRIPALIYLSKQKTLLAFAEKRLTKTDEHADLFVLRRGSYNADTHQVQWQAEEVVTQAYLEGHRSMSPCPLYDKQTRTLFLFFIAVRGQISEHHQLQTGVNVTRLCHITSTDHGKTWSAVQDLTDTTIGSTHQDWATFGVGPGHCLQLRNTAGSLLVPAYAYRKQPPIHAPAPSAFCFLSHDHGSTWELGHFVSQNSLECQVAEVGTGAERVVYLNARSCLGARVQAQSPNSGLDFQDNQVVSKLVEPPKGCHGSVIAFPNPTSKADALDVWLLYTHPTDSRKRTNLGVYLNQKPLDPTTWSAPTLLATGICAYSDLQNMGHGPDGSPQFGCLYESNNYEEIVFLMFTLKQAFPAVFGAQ

[2] = system: plasma membrane sialidase (adenovirus transformed kidney cells); settings: cited from earlier work
[3] = system: lysosomal sialidase (fibroblasts); settings: cited from earlier work
[4] = target: cytosolic sialidase from rat muscle; settings: cytosol, previously reported data, unit from footnote c; cited from earlier work
[5] = target: T1, CHO cell sialidase; assay: Sialidase kinetic constants with soluble sialylglycoconjugate substrates; type: biochemical, Chinese hamster; settings: for substrate cleavage in words: purified enzyme
Description: Fluorescent sialidase assays: Standard assay conditions for monitoring the enzyme activity during purification using the fluorescent substrate analog are: 1.3 mM 4-MUNeu5Ac, 50 mM phosphate buffer, pH 6.8, 0.3 mg bovine serum albumin and varying amounts of enzyme in a total volume of 30 μl. After addition of enzyme the samples are incubated at 37° C. in a shaking water bath for 5 minutes. The reaction is terminated and the fluorescence of the liberated umbelliferone is enhanced by the addition of 2 ml of 80 mM glycine-carbonate buffer, pH 9.7. Quantification of the product is made by measuring the fluorescence of the samples with excitation at 365 nm and emission at 450 nm using a standard of 4-methyl umbelliferone. A unit of enzyme activity is defined as a μmol/min of sialic acid liberated.
(§1) Sialidase assays with natural substrates: When natural substrates are tested with the purified enzyme, the amount of released sialic acid is measured using the thiobarbituric acid assay as modified by Uchida [Uchida et al. J. Biochem., 82:1425 (1977)] using sialic acid as standard. The amount of sialic acid in control samples, which include a complete assay mixture incubated without added enzyme is subtracted from each determination. All samples are cleared by centrifugation (1,000×G, 10 min) prior to determining the absorbance at 540 nm.
Enzyme kinetic parameters: Assay conditions (time and added enzyme) are modified for each substrate so that initial reaction rates are measured. Kinetic parameters are obtained from double reciprocal plots of the substrate saturation curves [Segel, I. H. John Wiley, New York, Enzyme Kinetics, 18 (1975)].
Substrate specificity: Several classes of sialyl glycoconjugates were tested as substrates, TABLE II. […] Transferrin is isolated from human serum and contains only 2,6 linked sialic acid residues [Baenziger, J. U. The Plasma Proteins 2nd Ed. (Putnam, F. W., ed.) 272-398, Academic Press, New York (1984)].

[6] = target: T1, CHO cell sialidase; assay: Sialidase activity toward gangliosides and colominic acid (thiobarbiturate assay); type: biochemical, Chinese hamster; design: key to Relative Activity: NR: no reaction products detected; settings: for Relative Activity: substrate 4 mM, initial rate, pH 6.0, cholic acid (0.05%) with lipid substrates, α-2,3 sialyllactose = 100; for ganglioside hydrolysis in words: cholic acid as solubilizing agent
Description: as §1
Some gangliosides are degraded by the sialidase (TABLE III), although these substrates require the presence of cholic acid as a solubilizing agent in the assay for optimal activity.

Relative Activity [6]	ganglioside hydrolysis in words [6]	Compound	substrate cleavage in words [5]	also measured
–	–	CC(=O)N[C@H]1[C@H]([C@H](O)[C@H](O)CSc2ccc(N=[N+]=[N-])cc2[N+](=O)[O-])OC(C(=O)O)=C[C@@H]1O [9-PANP-Neu5Ac2en, 9-S-(4'-azido-2'-nitro-phenyl)-5-acetamido-2,6 anhydro-9-thio-2,5,9-trideoxy-D-glycero-D-galacto-non-2-enonic acid]	–	inhibition in words [1]: weakly inhibited
–	–	CC(=O)N[C@H]1[C@H]([C@H](O)[C@H](O)CN=[N+]=[N-])OC(C(=O)O)=C[C@@H]1O [9-azido-Neu5Ac2en, 5-acetamido-2,6-anhydro-9-azido-3,5,9-trideoxy-D-glycero-D-galacto-non-2-enonic acid]	–	Ki ([2]; adenovirus transformed kidney cells, plasma membrane, previously reported data, unit from footnote c): 10 µM; inhibition in words ([2]; plasma membrane sialidase): strongly inhibited; inhibition in words [3]: strongly inhibited; Ki [4]: 50 µM; inhibition in words [1]: moderately inhibited
–	–	CC(=O)N[C@H]1[C@H]([C@H](O)[C@H](O)CO)O[C@@](O[C@H](CO)[C@@H](O)[C@@H]2OC(O)(C(=O)O)C[C@H](O)[C@H]2NC(C)=O)(C(=O)O)C[C@@H]1O (some centres unmarked) [Sialic acid dimer]	substrates for the enzyme	–
–	–	CC(=O)N[C@H]1[C@H]([C@H](O)[C@H](O)CO)O[C@@](O[C@H]2[C@@H](O)[C@@H](CO)O[C@@H](O[C@H]3[C@H](O)[C@@H](O)C(O)O[C@@H]3CO)[C@@H]2O)(C(=O)O)C[C@@H]1O (some centres unmarked) [sialyl lactose]	readily cleaved	–
100%	–	CC(=O)N[C@H]1[C@H]([C@H](O)[C@H](O)CO)O[C@@](O[C@H]2[C@@H](O)[C@@H](CO)O[C@@H](O[C@H]3[C@H](O)[C@@H](O)C(O)O[C@@H]3CO)[C@@H]2O)(C(=O)O)C[C@@H]1O (stereo partly drawn) [α-2,3 Sialyllactose]	–	–
4%	–	Colominic Acid	hydrolyzed but at substantially reduced rates	–
NR	not substrates	II^3 (NeuAc)2 -GgOse4 Cer [GD1b]	–	–
NR	not substrates	II^3 NeuAc-GgOse3 Cer [GM2]	–	–
NR	not substrates	II^3 NeuAc-GgOse4 Cer [GM1]	–	–
29%	hydrolyzed at comparable rates	II^3 NeuAc-LacCer [GM3]	–	–
23%	hydrolyzed at comparable rates	IV^3 NeuAc, II^3 (NeuAc)2 -GgOse4 Cer [GT1b]	–	–
21%	hydrolyzed at comparable rates	IV^3 NeuAc, II^3 NeuAc-GgOse4 Cer [GD1a]	–	–
–	–	Transferrin: isolated from human serum and contains only 2,6 linked sialic acid residues	cleaved much more slowly than that bound to recombinant human deoxyribonuclease I	Vmax ([5]; apparent, standard assay conditions, average of duplicates, relative error about 10%): 2 µmol/min/mg; Km values compared (in words) ([5]; transferrin versus deoxyribonuclease I): nearly identical
